Assay results as given in BindingDB's records for PubMed 35440138 (University of Strathclyde, 2022).

Key:
[1] = Inhibition of LPA-mediated ATX activation in human BJeH cells assessed as ERK phosphorylation level incubated for 30 mins by Western blot analysis
[2] = Inhibition of LPA-mediated ATX activation in human BJeH cells assessed as AKT phosphorylation level incubated for 30 mins by Western blot analysis

Question: Which EC50 [1] does the source give for `C[C@H](CCC(=O)N1CCC(Oc2ccc([B-](F)(F)F)cc2)CC1)[C@H]1CC[C@H]2C3[C@@H](O)C[C@@H]4C[C@H](O)CC[C@]4(C)[C@H]3CC[C@]12C` (some centres not stated) here?
Answer: Its EC50 is 100 nM.

Question: What about the EC50 [2] of the same compound?
Answer: The EC50 was 100 nM.
